Results from patent US20110053995A1, “BENZENESULFONANILIDE COMPOUND INHIBITORS OF UREA TRANSPORTERS” (THE REGENTS OF THE UNIVERSITY OF CALIFORNIA, priority 2006, published 2011).

Molecular target: T1, rat UT-A1 (Rattus norvegicus, UniProt Q62668)
T1 construct: expressed in transfected cells; host or cells: MDCK cells (gift of Dr. Jeffrey Sands, Emory University)
T1 sequence (Q62668 1-929): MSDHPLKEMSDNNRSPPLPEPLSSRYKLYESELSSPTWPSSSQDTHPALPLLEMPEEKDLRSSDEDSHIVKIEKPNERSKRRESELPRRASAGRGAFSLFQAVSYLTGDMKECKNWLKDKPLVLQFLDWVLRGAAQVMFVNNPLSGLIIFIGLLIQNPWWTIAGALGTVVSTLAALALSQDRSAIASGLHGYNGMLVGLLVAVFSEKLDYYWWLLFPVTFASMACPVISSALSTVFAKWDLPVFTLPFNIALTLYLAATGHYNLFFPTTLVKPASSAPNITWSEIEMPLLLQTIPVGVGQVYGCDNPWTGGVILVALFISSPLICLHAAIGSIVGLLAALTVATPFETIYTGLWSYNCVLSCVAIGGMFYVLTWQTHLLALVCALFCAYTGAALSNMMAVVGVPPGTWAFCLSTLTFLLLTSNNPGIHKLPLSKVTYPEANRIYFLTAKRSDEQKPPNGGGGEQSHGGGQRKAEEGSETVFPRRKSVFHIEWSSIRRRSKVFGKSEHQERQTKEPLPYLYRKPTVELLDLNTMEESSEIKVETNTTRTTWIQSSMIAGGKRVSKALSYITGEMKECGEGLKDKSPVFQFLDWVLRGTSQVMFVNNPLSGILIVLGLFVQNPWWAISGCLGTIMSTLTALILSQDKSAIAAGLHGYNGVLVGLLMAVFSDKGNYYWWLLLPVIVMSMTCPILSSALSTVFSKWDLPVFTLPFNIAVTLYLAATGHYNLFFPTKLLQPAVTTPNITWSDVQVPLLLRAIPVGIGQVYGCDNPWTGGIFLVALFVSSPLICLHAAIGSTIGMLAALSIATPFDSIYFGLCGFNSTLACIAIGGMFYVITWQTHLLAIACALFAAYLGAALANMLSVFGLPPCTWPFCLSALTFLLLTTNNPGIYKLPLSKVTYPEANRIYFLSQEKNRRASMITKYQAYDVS
Experiment: UT-A1-facilitated urea flux across MDCK-UT-A1 cell layers
Format: cell-based
Conditions: forskolin-stimulated MDCK-UT-A1 cells, 15-min time point; read-out: EC50 against rat UT-A1
Method: Concentration-inhibition studies were performed to study the effect of the active mouse UT-B inhibitors on urea transport by UT-A. The amino acid sequences of UT-B and UT-A urea transporter isoforms share significant similarity. The cells used in these studies were MDCK cells that expressed rat UT-A1. MDCK-UT-A1-expressing cells were grown on collagen-coated porous filters until they were electrically tight, at which point 15 mM urea was introduced into buffer bathing the basolateral cell surface.
MDCK cells stably transfected with rat UT-A1 (MDCK-UT-A1) (Fröhlich et al., Am J Physiol. in press; Fröhlich et al., Am. J. Physiol. Cell Physiol. 286:C1264-70 (2004). Epub on Jan. 28, 2004) were generously provided by Dr. Jeffrey Sands (Emory University School of Medicine, Atlanta, Ga.). Cells were grown in Dulbecco's Modified Eagle Medium (DMEM) with bicarbonate and supplemented with 10% fetal bovine serum (FBS), 25 mM HEPES buffer, penicillin G (100 U/mL), streptomycin (100 μg/mL) and hygromycin (500 μg/mL). For determining urea flux, cells were grown on 12-mm collagen-coated TRANSWELL inserts (0.4 μm pore size; Costar) as described (Fröhlich et al., Am J Physiol. in press; Fröhlich et al., 2004, supra). The TRANSWELL inserts were incubated in hygromycin-free medium for 1 hr in a 5% CO2 tissue culture incubator (37° C.), and then 2×10^5 cells/cm^2 were loaded onto each insert. Cells were used after culturing the cells for 4 days in hygromycin-free medium, at which time they formed tight monolayers (transepithelial resistance 500-600 Ω·cm^2).
UT-A1-facilitated urea flux in the basolateral-to-apical direction across unstimulated and forskolin-stimulated MDCK-UT-A1 cell layers was measured in response to a 15-mM urea gradient. Experiments were carried out in 12-well plates in which PBS, containing either DMSO vehicle or forskolin, with or without UT-B inhibitor, added to both the apical-facing (0.2 mL) and basal-facing (1 mL) surfaces of cells on the porous filters. Cultures were incubated in the absence of urea for 30 min at 37° C. Then, the basal-facing solution was replaced with PBS (containing same components) with 15 mM urea. Five μL samples of apical fluid were collected at specified times during incubation at 37° C., and urea concentration was determined using a commercial kit based on chromogenic urea complexation at 520-nm wavelength (Quantichrom™ Urea Assay Kit, BioAssay Systems, Hayward, Calif.). Forskolin (10 μM), with or without UT-B transport inhibitors, was added from 1000× DMSO stock solutions (0.2% final DMSO content). Inhibition of UT-A1-mediated transport was defined as % inhibition=100% (Aforsk−Atest)/(Aforsk−Aphlor). Aforsk, and Aphlor were averaged absorbance values (at 520 nm) for cultures treated with forskolin and forskolin+phloretin, respectively, and Atest were values from cultures treated with forskolin+test compound.

Row | EC50 | Compound
1 | ~15 µM | Cc1ccc(Nc2nnc(-c3ccc(C(N)=O)cc3)c3ccccc23)cc1 [ureainh-302]
2 | ~1.2 µM | NC(=O)CSc1oc(-c2ccccc2)nc1S(=O)(=O)c1ccc(Br)cc1 [ureainh-101]
